Results as given in the METLIN SMRT retention time set (Domingo-Almenara et al. 2019).

Experiment: gradient 5% acetonitrile 3 min, to 50% in 2 min, to 85% in 15 min, held 3 min, 100 µL/min
Conditions: column: Zorbax Extend-C18 2.1 x 50 mm; eluents: water / acetonitrile, 0.1% formic acid
Procedure, shortened: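 In both positive and negative ionization mode, a quadrupole time-of-flight mass spectrometer coupled to HPLC analyzed pure standards run in mixtures of ~100 molecules. The Zorbax Extend-C18 column (2.1 × 50 mm, 1.8 μm) was operated at 100 μL/min with water and acetonitrile, each containing 0.1% formic acid. The dead volume was 40 μL and the dwell volume 900 μL. Retention time came from adduct peaks that were computationally picked and individually inspected by hand.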

RP-LC retention time [s]	SMILES
690	COc1ccccc1NC(=O)Cn1nc2c3sc(N(C)C)nc3ncn2c1=O
984	Cc1cccc(-c2nc3nc(C)cc(Nc4cccc5nsnc45)n3n2)c1
753	CCn1ccc(C(=O)N2CCN(c3ccc(=O)n(-c4ccc(Cl)cc4)n3)CC2)n1
931	Cc1ccc(N2CCC(NC(=O)Nc3cc(C)cc(C)c3)C2=O)cc1 (stereo not drawn)
826	CC1CCC(NC(=O)C2CCN(C(=O)c3ncn4c3COC(c3ccc(F)cc3)C4)CC2)CC1 (stereo not drawn)
745	Cc1oc(C2CCN(C(=O)c3ccsc3)CC2)nc1C(=O)N1CCCCC1
918	CC(C)NC(=O)c1ccc(OCC2CCN(C(=O)c3ccc(Cl)cc3)CC2)cc1
786	COc1ccc(CC(=O)N2CCN(S(=O)(=O)c3cc4c5c(c3)CCC(=O)N5CCC4)CC2)cc1
771	O=C(O)CSc1nnc(-c2ccc(Cl)cc2Cl)n1Cc1ccccc1
952	O=C(CCC1CCCN(S(=O)(=O)c2ccccc2F)C1)NC1CCCCC1 (stereo not drawn)
860	CCCn1cc(S(=O)(=O)Nc2cc(OC)cc(OC)c2)c2cccnc21
607	CCOc1cccc2c1OC1(C)CC2NC(=O)N1c1cccc(C(=O)NCc2ccccn2)c1 (stereo not drawn)
645	NC(=O)c1nccn1Cc1ccccc1
751	CCOc1nccnc1N1CCC(N(C)C(=O)c2ccc(C#N)cc2)C1 (stereo not drawn)
618	CCN(Cc1ccc(OC)cc1)Cc1cc(=O)n2cccc(C)c2n1
758	CCCN(CC1CCOC1)C(=O)NCc1ccc(F)cc1 (stereo not drawn)
821	CCOC(=O)c1nc(NCCc2ccc(C)cc2)c2ccccc2n1
615	CCc1cccc(C)c1NC(=O)Cn1nc2c3cccc(C)c3ncn2c1=O
960	Cn1c(=O)c(N2CCCC(C(=O)NCCc3c[nH]c4ccc(Cl)cc34)C2)nc2ccccc21 (stereo not drawn)
762	Cc1ccc(CNC(=O)C2CCCN(S(=O)(=O)c3c[nH]c(C(=O)N4CCCC4)c3)C2)cc1 (stereo not drawn)
902	COc1ccccc1-c1nnc(-c2cc(S(=O)(=O)N3CCOCC3)ccc2Cl)o1
818	Cc1ccc(CNC(=O)C2(C)CN(S(C)(=O)=O)CC(=O)N2c2cccc(F)c2)cc1 (stereo not drawn)

RP-LC retention time [s]	SMILES
632	Cc1nc(C)c(C(=O)N2CCC(c3noc(-c4cnccn4)n3)C2)s1 (stereo not drawn)
558	O=C(c1ccc2c(c1)OCO2)N1C[C@@H](CO)[C@H](c2ccncc2)C1
922	CCCN(CC1CCOC1)C(=O)Nc1cccc(C(F)(F)F)c1 (stereo not drawn)
745	Cc1cc(C)cc(Nc2nc3ccncc3n(C(C)C)c2=O)c1
1020	C[C@H]1CN(C(=O)c2c(F)cccc2F)C[C@@H]1c1nc(-c2ccccc2)no1
988	CN(C)CCNc1oc(-c2ccc(COc3ccc(Cl)cc3)o2)nc1C#N
846	COc1cccc(S(=O)(=O)N2CCC(c3noc(-c4cccnc4)n3)C2)c1 (stereo not drawn)
738	CC(C)C(=O)NC(Cc1ccccc1)c1nnc(N2CCSCC2)o1 (stereo not drawn)
843	Cc1cccc(NC(=O)C2CCN(S(=O)(=O)c3cc(C(=O)N4CCCC4)n(C)c3)CC2)c1C
600	O=C(CCSc1ccccc1)NCCn1nc(-c2ccc(Cl)cc2)ccc1=O
1210	CCc1nc(-c2csc(S(=O)(=O)N3CCCC(C(=O)Nc4c(C)cc(C)cc4C)C3)c2)no1 (stereo not drawn)
750	COc1ccc(CCNC(=O)CN2C(=O)NC(c3ccc(Cl)cc3)C3=C2COC3=O)cc1OC (stereo not drawn)
872	Cc1cc(=O)n(CC(=O)NC(C)CCc2ccccc2)c(N2CCc3ccccc3C2)n1 (stereo not drawn)
1150	CC1CCN(S(=O)(=O)c2cccc(-c3nnc(-c4ccc(F)cc4)o3)c2)CC1
1000	COc1ccc(S(=O)(=O)CCC(=O)N2CCCC2c2nc(-c3ccc(Cl)cc3)no2)cc1 (stereo not drawn)
666	CCCN(C)C(=O)COc1ccc(NC(=O)C2CC2)cn1
1190	COc1ccc(-c2nc(COc3cc(C(F)(F)F)c4c(C)nn(C)c4n3)c(C)o2)cc1OC
740	COc1ccc(-c2cn3cccnc3n2)cc1NC(=O)c1cccc(Cl)c1
866	COc1ccc(-c2noc(Cn3ccn(-c4cccc(Cl)c4)c(=O)c3=O)n2)cc1
735	CCCC(NC(=O)c1ccc(C)cc1C)C(=O)Nc1nc2ccccc2[nH]1 (stereo not drawn)
626	CCS(=O)(=O)Nc1ccc2nc(N3CCN(c4ccc(OC)cc4)CC3)cc(C(=O)O)c2c1
600	COCc1cn(CC2CCCN(Cc3cn(C)c4ccc(OC)cc34)C2)nn1 (stereo not drawn)

RP-LC retention time [s]	SMILES
1060	COc1ccc(N(C(=O)Nc2ccccc2OC)C2=NCCC2)cc1Cl
1320	CC1=NS(=O)(=O)N(Cc2ccccc2)C=C1C(=O)OCc1ccc(C(C)(C)C)cc1
704	Cc1ccc(-c2nc3nc(C)cc(C)n3c2Nc2ccc3c(c2)OCCO3)cc1
624	COCCN(C)C(=O)c1cn(C2CN(C(=O)NCC(C)C)C2)nn1
772	CCn1cc(C)c(C(=O)O)c1CC(=O)NCc1ccc(C)cc1
691	O=C(NCC1CCN(C(=O)c2cc3ccccc3o2)CC1)C(=O)NCC1CCCO1 (stereo not drawn)
924	CCCn1cc(CCNS(=O)(=O)c2ccc(C)cc2C)c2cccnc21
1190	CCc1noc(C2(NC(=O)c3ccc(C(C)(C)C)cc3)CCCCC2)n1
769	Cc1cccc(NC(=O)C2CCN(S(=O)(=O)c3cc(C(=O)N4CCCCCC4)cs3)CC2)n1
854	CC(C)CC(=O)Nc1nnc(SCc2nnc(-c3ccc4c(c3)OCO4)o2)s1
997	Cc1c(Cl)cccc1Nc1c(-c2ccccc2)nc2cnccn12
642	O=C1CC(c2noc(-c3ccccc3)n2)CN1Cc1ccccc1 (stereo not drawn)
658	COC1CCC12CCN(C(=O)CC1CCN(C(C)=O)CC1)CC2 (stereo not drawn)
852	O=S(=O)(Cc1cccc(F)c1)NCCc1ccsc1
1070	CCC1CCCCN1C(=O)CSc1nc2c3cc(OC)ccc3n(C)c2c(=O)n1CC (stereo not drawn)
756	COc1ccc(N2CCN(C(=O)c3ccc4c(c3)NC(=O)C3CCCCN43)CC2)cc1 (stereo not drawn)
749	Cc1ccc(-c2noc(-c3ccc(N4CCN(c5cc(C)ccc5C)CC4)nc3)n2)cc1
624	Fc1cccc(CN2CC[C@@H]3CN(Cc4ccccc4)[C@@H]3C2)c1
770	COCCCNC(=O)C1c2ccccc2C(=O)N1Cc1ccc(Cl)cc1 (stereo not drawn)
831	Cc1noc(-c2ccc(OC3CN(C(=O)NCc4ccc(F)cc4)C3)cc2)n1
1000	CCOc1ccc(NC(=O)C2CCN(S(=O)(=O)c3cc(-c4noc(C)n4)sc3C)CC2)cc1
947	Cc1[nH]c(-c2ccc(Cl)cc2)cc1C(=O)NC1CCCC1

RP-LC retention time [s]	SMILES
610	COC(=O)c1c(NCCO)c2cccc(Cl)c2[nH]c1=O
946	CCCS(=O)(=O)N1CC(=O)N(c2cccc(Cl)c2C)C(C)(C(=O)NC2CCCC2)C1 (stereo not drawn)
822	CC(C)NC(=O)c1ccc(OCC2CCN(C(=O)Cc3cccs3)CC2)cc1
747	O=C(Cc1c(F)cccc1Cl)NC1CCN(c2cc(-c3cccs3)[nH]n2)C1 (stereo not drawn)
720	O=C(CN1CCC(c2nc(-c3ccc(F)cc3)no2)CC1)NCc1ccc2c(c1)OCO2
718	CC(C)Oc1ccc(CN2CC[C@]3(CO)CN(Cc4ccccc4)C[C@@H]3C2)cc1
652	COc1ccc(-c2cn3c(CC(=O)NCc4cc(OC)c(OC)c(OC)c4)csc3n2)cc1OC
900	CCc1cccc(C)c1NC(=O)C1Cc2cc(S(=O)(=O)N3CCCCC3)ccc2N1C(C)=O (stereo not drawn)
609	Cc1cc(=O)n(CC(=O)Nc2ccc(Br)cc2)c(N)n1
856	COc1ccc(NC(=O)c2cnc(-c3ccc(F)cc3)nc2-c2ccncc2)cc1
659	COCC(=O)N1CCCCCCNC(=O)[C@@H]2CCCC[C@@H]21
759	O=C(Nc1cnn(-c2ncc(N3CCSCC3)cn2)c1)NC1CCCCC1
806	COCc1cc(=O)n(Cc2cccc(F)c2)c(N2CCCC2)n1
641	CN(C)CCNc1oc(COc2ccc(Cl)cc2)nc1C#N
744	CN(CC(=O)N1CCN(c2ccccc2)CC1)S(=O)(=O)c1c[nH]c(C(=O)N2CCCC2)c1
1070	Cc1ccc(-n2cc3c(c(C(=O)Nc4ccc5c(c4)OCCO5)c2=O)CC(C)(C)CC3=O)cc1
955	CC(=O)N1c2ccc(S(=O)(=O)N3CCCCC3)cc2CC1C(=O)Nc1c(C)cc(C)cc1C (stereo not drawn)
773	CCOc1ccc(Nc2ncccc2S(N)(=O)=O)cc1
626	Cc1nn(CC(=O)N2CCN(C)CC2)c(=O)c2cc(-c3ccccc3)nn12
790	O=C(NC1CC1)C1CCN(S(=O)(=O)c2cc(-c3noc(C4CC4)n3)cs2)CC1
1020	Cc1cc(C)cc(S(=O)(=O)N2CCC(C(=O)NCCc3csc(-c4ccccc4)n3)CC2)c1
911	Cc1ccc(-c2cn3c(CC(=O)Nc4ccc(F)cc4Cl)csc3n2)cc1C
